Reference: patent US10717740B2, “Solid forms of acalabrutinib and process for preparation thereof” (DR. REDDY'S LABORATORIES LIMITED, priority 2017, dated 2020)

Experiment: Solid-state storage stability of the crystalline form
Assay type: physicochemical

Measured: stability of crystalline form on storage

CC#CC(=O)N1CCC[C@H]1c1nc(-c2ccc(C(=O)Nc3ccccn3)cc2)c2c(N)nccn12 [form RSV3, acalabrutinib]
stable: 3 months at 2-8° C. | 3 months at 25° C./60% RH | 3 months at 40° C./75% RH
